Measurements published in patent publication US20200163984A1, “USE OF ISOVALERYL SPIRAMYCIN I, II AND/OR III IN MANUFACTURING MEDICAMENT FOR TREATING AND/OR PREVENTING TUMOR, AND MEDICAMENT” (SHENYANG FUYANG PHARMACEUTICAL TECHNOLOGY CO., LTD., priority 2017, published 2020).

Key:
[1] = test system: transplanted tumor of human large cell lung cancer H460 cells; test: H460 transplanted tumor in nude mice
Procedure: (§1) Then cell concentration was adjusted to 1×10^7/ml with matrigel, then each nude mouse was inoculated subcutaneously with 0.2 ml of cells at its right armpit and recorded as the first day of inoculation. When the tumor grows to be greater than or equal to 100 mm^3, the mice were randomly divided into 11 groups with 6 mice in each group: isovaleryl spiramycin I groups with doses of 25, 50 and 100 mg/kg, isovaleryl spiramycin II groups with doses of 25, 50 and 100 mg/kg, and isovaleryl spiramycin III groups with doses of 25, 50 and 100 mg/kg. Each group was continuously administered intragastrically for 30 days with a dose of 20 ml/kg. The mice were sacrificed the next day after drug withdrawal and the indicators were tested. The long diameter and short diameter of the tumor, and the body weight of each mouse were recorded every 3 days from drug administration to nude mouse sacrifice.
(§2) The body weight of the nude mice and the long diameter (a) and short diameter (b) of the transplanted tumor were measured every 3 days, and the tumor volume (v), relative tumor volume (RTV) and relative tumor proliferation rate (T/C) are calculated respectively according to the following formulas, wherein V=a×b^2/2; RTV=V/V0 (V0 is the tumor volume before administration, V is the tumor volume before sacrifice), and T/C (%)=treatment group RTV/model control group RTV×100%.
(§3) Each mouse was weighed and sacrificed. After the tumor was completely stripped off from the body of the mouse, the non-tumor tissues such as blood stains and fat were removed to weigh the tumor and calculate the tumor growth inhibition rate. The average tumor weight of each group of mice is used as an indicator of efficacy. Tumor growth inhibition rate (%)=(1−the average tumor weight of the treatment group/the average tumor weight of the model group)×100%.

[2] = test system: spleen lymphocytes (ConA, LPS stimulation); test: Spleen lymphocyte proliferation activity of Lewis lung cancer tumor-bearing mice; assay type: in vivo, C57BL/6 mouse; conditions: for lymphocyte activity compared with the control group: Lewis tumor-bearing mice; for B Lymphocyte Proliferation Activity (%) / T Lymphocyte Proliferation Activity (%): n = 6
Procedure: In the Lewis lung cancer model, the mice inoculated with the tumor were randomly divided into groups with 10 mice in each group the next day of inoculation. The groups included: a model control group, a positive drug cyclophosphamide control group (CTX, 30 mg/kg), isovaleryl spiramycin I groups with doses of 13, 26 and 52 mg/kg; isovaleryl spiramycin II groups with doses of 13, 26 and 52 mg/kg; isovaleryl spiramycin III groups with doses of 13, 26 and 52 mg/kg. Each group was continuously administered intragastrically for 15 days with a dose of 20 ml/kg.
The serum-free RPMI 1640 medium was placed in a dish, and then the dish was placed on ice. The spleen was aseptically taken and gently ground with a sterile glass slide to prepare a single cell suspension. The single cell suspension was filtered with a double-layer sterile gauze, washed twice with serum-free RPMI1640 medium, and centrifuged at 1,500 rpm for 5 min to remove the obtained supernatant. 2 mL of red blood cell lysate was added to the treated suspension, the mixture was allowed to stand for 2 min, and then 8 mL of RPMI 1640 medium was added, centrifuging was performed at 1,500 rpm for 5 min to remove the obtained supernatant, and then washing was performed twice with the RPMI 1640 medium. […] A single cell suspension was prepared by using a RPMI 1640 medium containing 10% fetal bovine serum.
The spleen cell suspension was taken, and the cell density was adjusted to 1×10^7/mL. Each mouse was set with: A. a control well: 100 μL of RPMI 1640 medium was added; B. a concanavalin A (ConA) stimulation well: 100 μL (10 mg/L) of concanavalin A (ConA) solution was added; and C. a bacterial endotoxin (LPS) stimulating well: 100 μL (20 mg/L) of bacterial endotoxin (LPS) solution was added. The above cells were added to a 96-well plate, and then 100 μL of spleen cell suspension was added to each of the above wells. After the culture plate was transferred to a saturated humidity condition with a volume fraction of 5% CO2 at 37° C. for incubation for 72 h, 10 μL of MTT solution (5 g/L) was added to each well, and incubation was continued to be performed for 4 hours under the same conditions, then the culture was terminated. 100 μl of a triple solution (SDS 10 g, 10M HCl 0.1 mL, […] 5 mL, diluted with distilled water to 100 mL) was added, and the plate was shaken for 10 min to fully dissolve the crystals. The Optical Density (OD) of each well was measured at 570 nm, and the lymphocyte proliferation rate was calculated. Lymphocyte proliferation rate (%)=[(T-C)/C]×100%, wherein T was the Optical Density of the stimulation well, and C is the Optical Density of the control well.

[3] = test system: transplanted tumor of human prostate cancer cell PC3; test: PC3 transplanted tumor in nude mice
Procedure: as §1, with “group: a model group, a cyclophosphamide group,” for “group:”
as §2, §3

[4] = H460, 25 mg/kg (low dose) i.g. 30 days
[5] = H460, 50 mg/kg (medium dose) i.g. 30 days
[6] = H460, 100 mg/kg (high dose) i.g. 30 days
[7] = PC3, 25 mg/kg (low dose) i.g. 30 days
[8] = PC3, 50 mg/kg (medium dose) i.g. 30 days
[9] = PC3, 100 mg/kg (high dose) i.g. 30 days

O=P1(N(CCCl)CCCl)NCCCO1 (stereo not drawn) [Cyclophosphamide, cyclophosphamide, reference compound]
Body Weight (d 1) ([1]; H460, 30 mg/kg i.g. 30 days): 20.46 ± 0.54 g | Body Weight (d 30) ([1]; H460, 30 mg/kg i.g. 30 days): 21.20 ± 0.75 g | Inhibition Rate (tumor growth inhibition rate) ([1]; H460, 30 mg/kg i.g. 30 days): 71.08% | Relative Tumor Proliferation Rate (T/C) ([1]; H460, 30 mg/kg i.g. 30 days): 30.86% | Relative Tumor Volume (RTV) ([1]; H460, 30 mg/kg i.g. 30 days): 3.24 ± 0.99 | Tumor Volume (d 1) ([1]; H460, 30 mg/kg i.g. 30 days): 146.98 ± 27.55 mm3 | Tumor Volume (d 30) ([1]; H460, 30 mg/kg i.g. 30 days): 468.49 ± 128.57 mm3 | Tumor Weight ([1]; H460, 30 mg/kg i.g. 30 days): 0.50 ± 0.06 g | lymphocyte activity compared with the control group ([2]; cyclophosphamide, P<0.05): significantly inhibited | B Lymphocyte Proliferation Activity (%) ([2]; dose 26 mg/kg): 11.63 ± 4.68 % | T Lymphocyte Proliferation Activity (%) ([2]; dose 26 mg/kg): 13.24 ± 3.72 % | Body Weight (d 1) ([3]; PC3, 30 mg/kg i.g. 30 days): 21.57 ± 0.75 g | Body Weight (d 30) ([3]; PC3, 30 mg/kg i.g. 30 days): 16.43 ± 0.78 g | Inhibition Rate (tumor growth inhibition rate) ([3]; PC3, 30 mg/kg i.g. 30 days): 70.03% | Relative Tumor Proliferation Rate (T/C) ([3]; PC3, 30 mg/kg i.g. 30 days): 29.33% | Relative Tumor Volume (RTV) ([3]; PC3, 30 mg/kg i.g. 30 days): 5.73 ± 2.23 | Tumor Volume (d 1) ([3]; PC3, 30 mg/kg i.g. 30 days): 155.36 ± 34.96 mm3 | Tumor Volume (d 30) ([3]; PC3, 30 mg/kg i.g. 30 days): 834.50 ± 135.35 mm3 | Tumor Weight ([3]; PC3, 30 mg/kg i.g. 30 days): 0.56 ± 0.17 g

CO[C@@H]1[C@@H](O[C@@H]2O[C@H](C)[C@@H](O[C@H]3C[C@@](C)(O)[C@@H](OC(=O)CC(C)C)[C@H](C)O3)[C@H](N(C)C)[C@H]2O)[C@@H](CC=O)C[C@@H](C)[C@@H](O[C@H]2CC[C@H](N(C)C)[C@@H](C)O2)/C=C/C=C/C[C@@H](C)OC(=O)C[C@H]1O [Isovaleryl spiramycin I, isovaleryl spiramycin I]
Inhibition Rate (tumor growth inhibition rate) [1, 4]: 20.70% | Relative Tumor Proliferation Rate (T/C) [1, 4]: 56.56% | Relative Tumor Volume (RTV) [1, 4]: 5.94 ± 2.02 | Tumor Volume (d 1) [1, 4]: 148.20 ± 15.93 mm3 | Tumor Volume (d 30) [1, 4]: 889.44 ± 343.94 mm3 | Tumor Weight [1, 4]: 1.37 ± 0.13 g | Inhibition Rate (tumor growth inhibition rate) [1, 5]: 46.33% | Relative Tumor Proliferation Rate (T/C) [1, 5]: 49.00% | Relative Tumor Volume (RTV) [1, 5]: 5.15 ± 2.25 | Tumor Volume (d 1) [1, 5]: 148.51 ± 17.68 mm3 | Tumor Volume (d 30) [1, 5]: 753.94 ± 306.82 mm3 | Tumor Weight [1, 5]: 0.93 ± 0.18 g | Inhibition Rate (tumor growth inhibition rate) [1, 6]: 70.11% | Relative Tumor Proliferation Rate (T/C) [1, 6]: 31.96% | Relative Tumor Volume (RTV) [1, 6]: 3.36 ± 0.85 | Tumor Volume (d 1) [1, 6]: 145.08 ± 19.59 mm3 | Tumor Volume (d 30) [1, 6]: 477.54 ± 89.21 mm3 | Tumor Weight [1, 6]: 0.52 ± 0.07 g | tumor volume and relative tumor volume compared with the model group ([1]; H460, low, medium and high doses, P<0.05): significantly lower | mouse weight compared with the model group ([1]; mouse, in vivo): no significant changes | lymphocyte activity compared with the control group ([2]; 13, 26 and 52 mg/kg, P<0.05, P<0.01): significantly increase | B Lymphocyte Proliferation Activity (%) ([2]; dose 13 mg/kg): 41.63 ± 7.06 % | T Lymphocyte Proliferation Activity (%) ([2]; dose 13 mg/kg): 25.27 ± 8.20 % | B Lymphocyte Proliferation Activity (%) ([2]; dose 26 mg/kg): 44.81 ± 4.41 % | T Lymphocyte Proliferation Activity (%) ([2]; dose 26 mg/kg): 36.24 ± 2.15 % | B Lymphocyte Proliferation Activity (%) ([2]; dose 52 mg/kg): 32.71 ± 1.84% | T Lymphocyte Proliferation Activity (%) ([2]; dose 52 mg/kg): 22.26 ± 4.33% | Inhibition Rate (tumor growth inhibition rate) [3, 7]: 33.87% | Relative Tumor Proliferation Rate (T/C) [3, 7]: 70.43% | Relative Tumor Volume (RTV) [3, 7]: 13.78 ± 3.15 | Tumor Volume (d 1) [3, 7]: 127.59 ± 6.73 mm3 | Tumor Volume (d 30) [3, 7]: 1758.15 ± 412.68 mm3 | Tumor Weight [3, 7]: 1.24 ± 0.51 g | Inhibition Rate (tumor growth inhibition rate) [3, 8]: 51.33% | Relative Tumor Proliferation Rate (T/C) [3, 8]: 49.14% | Relative Tumor Volume (RTV) [3, 8]: 9.61 ± 3.15 | Tumor Volume (d 1) [3, 8]: 186.59 ± 39.40 mm3 | Tumor Volume (d 30) [3, 8]: 1706.14 ± 347.50 mm3 | Tumor Weight [3, 8]: 0.91 ± 0.33 g | Inhibition Rate (tumor growth inhibition rate) [3, 9]: 71.01% | Relative Tumor Proliferation Rate (T/C) [3, 9]: 30.72% | Relative Tumor Volume (RTV) [3, 9]: 6.01 ± 1.78 | Tumor Volume (d 1) [3, 9]: 175.94 ± 12.32 mm3 | Tumor Volume (d 30) [3, 9]: 1041.69 ± 247.71 mm3 | Tumor Weight [3, 9]: 0.55 ± 0.21 g | tumor volume and relative tumor volume compared with the model group ([3]; PC3, low, medium and high doses, P<0.05): significantly lower | mouse weight compared with the model group ([3]; mouse, in vivo): no significant changes
